Assay results reported in US20220387608A1, “ADRENOMEDULLIN-ANALOGUES FOR LONG-TERM STABILIZATION AND THEIR USE” (Bayer Aktiengesellschaft, priority 2019, published 2022).
Positions of bridges follow the written chain, without caps; N, C: chain ends. Non-standard residues stand in square brackets, D forms with d. Residues, ends and D or L forms follow the SMILES beside them. *: point of attachment. C18 diacid = O=C(O)CCCCCCCCCCCCCCCCC(=O)*; PEG5 = NCCOCCOCCOCCOCCOCCC(=O)O; PEG4 = NCCOCCOCCOCCOCCC(=O)O; PEG3 = NCCOCCOCCOCCC(=O)O

Target: T1, AM1R (Homo sapiens, UniProt O60895+Q16602)
T1 construct: EYFP; ECFP; expressed in transfected cells; host or cells: HEK-293 (transient co-transfection)
Experiment: Activity determination in vitro: cAMP/CRE-luciferase reporter assay in HEK293 cells transiently co-transfected with CLR and RAMP2
Format: cell-based
Details: for Emax: HEK293, normalized to [G14]ADM(14-52); for EC50: HEK293 with CLR/RAMP2, CRE-luciferase, 3 h stimulation
Procedure: (1a) Activity Determination of Adrenomedullin Analogues in vitro
Cell Culture HEK-293 cells (human embryonic kidney cells) were cultured in Ham's F-12/DMEM (1/1; v/v) containing 15% FCS under humidified atmosphere at 37° C. and 5% CO2 in 75 cm^2 cell culture flasks.
Cells were cultured in 75 cm^2 flasks to 70-80% confluency. 45 μl Metafectene® Pro was diluted in 900 ρl Ham's F-12/DMEM (1/1; v/v) and incubated for 20 min at room temperature. 9 μg plasmid containing DNA of CLR fused to EYFP and 3 μg plasmid containing DNA of RAMP2 fused to ECFP were dissolved in 900 μl Ham's F-12/DMEM (1/1; v/v). The plasmid solution was mixed with the Metafectene® Pro solution and incubated for 25 min at room temperature. Medium was removed from the cells and replaced by 6 m1 Ham's F-12/DMEM (1/1; v/v) containing 15% FCS. After addition of transfection solution the cells were incubated for 3 h under humidified atmosphere at 37° C. and 5% CO2. For the second transfection 45 μl Metafectene® Pro was diluted in 900 μl Ham's F-12/DMEM (1/1; v/v) and incubated for 20 min at room temperature. 12 μg of pGL4.29[Luc2P/CRE/Hygro] plasmid containing DNA for the luciferase reporter gene luc2P (with CRE promotor region) were dissolved in 900 μl Ham's F-12/DMEM (1/1; v/v). The plasmid solution was mixed with the Metafectene® Pro solution and incubated for 25 min at room temperature. Medium was removed from the cells and replaced by 6 m1 Ham's F-12/DMEM (1/1; v/v) containing 15% FCS. After addition of transfection solution, the cells were incubated under humidified atmosphere at 37° C. and 5% CO2 over night.
For coating of 96-well-plates, 50 μl of a poly-D-lysine solution in DPBS (0.1 mg/ml) were pipetted in each well and incubated for 40 min. After removal of poly-D-lysine, each well was washed with 50 μl DPBS. Transiently transfected cells were detached from the cell culture flask by removal of the medium, 2-fold washing with 5 m1 DPBS and resuspending in 40 m1 Ham's F-12/DMEM (1/1; v/v) containing 15% FCS. 90,000 to 120,000 cells in 150 μl Ham's F-12/DMEM (1/1; v/v) containing 15% FCS were seeded per well and the plates were incubated under humidified atmosphere at 37° C. and 5% CO2 over night.
For each ligand, a serial dilution with eight different concentrations was prepared using Ham's F^12/DMEM (1/1; v/v). Before stimulation, the medium on the cells was replaced by 100 μl Ham's F^12/DMEM (1/1; v/v) and the plates were incubated for 1 h under humidified atmosphere at 37° C. and 5% CO2. For stimulation, the medium was removed and the cells were incubated for 3 h in 80 μl of ligand-solution under humidified atmosphere at 37° C. and 5% CO2. In addition 80 μl of a 5 μM forskolin solution in Ham's F-12/DMEM (1/1; v/v) was used as a positive control and 80 μl of Ham's F-12/DMEM (1/1; v/v) as a negative control. Each concentration and the controls were tested as triplicates.
After 3 h of stimulation, the solutions were removed and the cells were washed with 50 μl of Ham's F-12/DMEM (1/1; v/v) perwell. After 10 m incubation in 30 μl of Ham's F-12/DMEM (1/1; v/v) at room temperature, 30 μl of luciferase-solution (ONE-Glo™ Luciferase Assay System) was added and the luminescence was directly measured using an Infinite M200 (Tecan).
Data analysis of the luminescence measurement was carried out with GraphPad Prism 5. Therefore, the measured luminescence values of each plate were first corrected on the base of the respective average of forskolin stimulation. Afterwards they were normalized to [G14]ADM(14-52), which was used as standard peptide in every assay. After correction and normalization, data was analyzed using non-linear regression giving dose-response curves for each tested ligand.

T1 sequence (Q16602 23-461): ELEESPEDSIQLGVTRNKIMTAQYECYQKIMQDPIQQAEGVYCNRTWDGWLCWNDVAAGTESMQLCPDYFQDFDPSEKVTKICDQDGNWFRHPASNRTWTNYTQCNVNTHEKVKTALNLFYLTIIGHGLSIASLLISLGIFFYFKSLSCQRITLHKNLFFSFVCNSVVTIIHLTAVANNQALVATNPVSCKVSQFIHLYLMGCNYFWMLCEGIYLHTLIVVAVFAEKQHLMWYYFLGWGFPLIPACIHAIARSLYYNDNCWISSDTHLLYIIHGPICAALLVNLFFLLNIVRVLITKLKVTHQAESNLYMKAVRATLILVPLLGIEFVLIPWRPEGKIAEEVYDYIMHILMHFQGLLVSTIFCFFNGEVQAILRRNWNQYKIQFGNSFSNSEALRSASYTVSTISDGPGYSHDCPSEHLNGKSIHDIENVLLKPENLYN
T1 sequence (O60895 43-175): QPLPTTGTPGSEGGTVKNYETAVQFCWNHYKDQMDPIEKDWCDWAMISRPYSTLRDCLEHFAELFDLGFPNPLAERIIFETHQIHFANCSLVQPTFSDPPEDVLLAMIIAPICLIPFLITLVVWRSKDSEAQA

| Compound | Emax | EC50 |
| --- | --- | --- |
| CC[C@H](C)[C@H](NC(=O)[C@H](CCC(N)=O)NC(=O)[C@H](Cc1c[nH]cn1)NC(=O)[C@H](C)NC(=O)[C@H](CC(C)C)NC(=O)[C@H](CCCCN)NC(=O)[C@H](CCC(N)=O)NC(=O)[C@@H](NC(=O)[C@@H](NC(=O)[C@@H]1CSSC[C@H](NC(=O)CNC(=O)CN)C(=O)N[C@@H](CCCNC(=N)N)C(=O)N[C@@H](Cc2ccccc2)C(=O)NCC(=O)N[C@@H]([C@@H](C)O)C(=O)N1)[C@@H](C)O)C(C)C)C(=O)N[C@@H](Cc1ccc(O)cc1)C(=O)N[C@@H](CCC(N)=O)C(=O)N[C@@H](Cc1ccccc1)C(=O)N[C@H](C(=O)N[C@@H](CC(=O)O)C(=O)NCCOCCOCCOCCOCCC(=O)N[C@H](C(=O)N[C@@H](C)C(=O)N1CCC[C@H]1C(=O)N[C@@H](CCCNC(=N)N)C(=O)N[C@@H](CO)C(=O)N[C@@H](CCCCN)C(=O)N[C@H](C(=O)N[C@@H](CO)C(=O)N1CCC[C@H]1C(=O)N[C@@H](CCC(N)=O)C(=O)NCC(=O)N[C@@H](Cc1ccc(O)cc1)C(N)=O)[C@@H](C)CC)C(C)C)[C@@H](C)O [Example 10, ((4R,7S,13S,16S,19R)-19-(2-(2-aminoacetamido)acetamido)-13-benzyl-16-(3-guanidinopropyl)-7-((R)-1-hydroxyethyl)-6,9,12,15,18-pentaoxo-1,2-dithia-5,8,11,14,17-pentaazacycloicosane-4-carbonyl)-L-threonyl-ADM(23-35)-(1-(λ^2-azaneyl)-3,6,9,12-tetraoxapentadecan-15-oyl)-L-valyl-ADM(42-52)] (H-GGCRFGTCTVQKLAHQIYQFTD[PEG4]VAPRSKISPQGY-NH2; disulfide 3-8) | 77 ± 3% | 81 nM |
| CC[C@H](C)[C@H](NC(=O)[C@H](CCC(N)=O)NC(=O)[C@H](Cc1c[nH]cn1)NC(=O)[C@H](C)NC(=O)[C@H](CC(C)C)NC(=O)[C@H](CCCCN)NC(=O)[C@H](CCC(N)=O)NC(=O)[C@@H](NC(=O)[C@@H](NC(=O)[C@@H]1CSSC[C@H](NC(=O)CNC(=O)CN)C(=O)N[C@@H](CCCNC(=N)N)C(=O)N[C@@H](Cc2ccccc2)C(=O)NCC(=O)N[C@@H]([C@@H](C)O)C(=O)N1)[C@@H](C)O)C(C)C)C(=O)N[C@@H](Cc1ccc(O)cc1)C(=O)N[C@@H](CCC(N)=O)C(=O)N[C@@H](Cc1ccccc1)C(=O)N[C@H](C(=O)NCCOCCOCCOCCOCCOCCC(=O)N[C@H](C(=O)N[C@@H](C)C(=O)N1CCC[C@H]1C(=O)N[C@@H](CCCNC(=N)N)C(=O)N[C@@H](CO)C(=O)N[C@@H](CCCCN)C(=O)N[C@H](C(=O)N[C@@H](CO)C(=O)N1CCC[C@H]1C(=O)N[C@@H](CCC(N)=O)C(=O)NCC(=O)N[C@@H](Cc1ccc(O)cc1)C(N)=O)[C@@H](C)CC)C(C)C)[C@@H](C)O [Example 11, ((4R,7S,13S,16S,19R)-19-(2-(2-aminoacetamido)acetamido)-13-benzyl-16-(3-guanidinopropyl)-7-((R)-1-hydroxyethyl)-6,9,12,15,18-pentaoxo-1,2-dithia-5,8,11,14,17-pentaazacycloicosane-4-carbonyl)-L-threonyl-ADM(23-34)-(1-(λ^2-azaneyl)-3,6,9,12,15-pentaoxaoctadecan-18-oyl)-L-valyl-ADM(42-52)] (H-GGCRFGTCTVQKLAHQIYQFT[PEG5]VAPRSKISPQGY-NH2; disulfide 3-8) | 94 ± 2% | 39 nM |
| CC[C@H](C)[C@H](NC(=O)[C@H](CCC(N)=O)NC(=O)[C@H](Cc1c[nH]cn1)NC(=O)[C@H](C)NC(=O)[C@H](CC(C)C)NC(=O)[C@H](CCCCN)NC(=O)[C@H](CCC(N)=O)NC(=O)[C@@H](NC(=O)[C@@H](NC(=O)[C@@H]1CSSC[C@H](NC(=O)CNC(=O)CN)C(=O)N[C@@H](CCCNC(=N)N)C(=O)N[C@@H](Cc2ccccc2)C(=O)NCC(=O)N[C@@H]([C@@H](C)O)C(=O)N1)[C@@H](C)O)C(C)C)C(=O)N[C@@H](Cc1ccc(O)cc1)C(=O)N[C@@H](CCC(N)=O)C(=O)N[C@@H](Cc1ccccc1)C(=O)N[C@H](C(=O)N[C@@H](CC(=O)O)C(=O)NCCOCCOCCOCCOCCOCCC(=O)N[C@@H](C)C(=O)N1CCC[C@H]1C(=O)N[C@@H](CCCNC(=N)N)C(=O)N[C@@H](CO)C(=O)N[C@@H](CCCCN)C(=O)N[C@H](C(=O)N[C@@H](CO)C(=O)N1CCC[C@H]1C(=O)N[C@@H](CCC(N)=O)C(=O)NCC(=O)N[C@@H](Cc1ccc(O)cc1)C(N)=O)[C@@H](C)CC)[C@@H](C)O [Example 12, ((4R,7S,13S,16S,19R)-19-(2-(2-aminoacetamido)acetamido)-13-benzyl-16-(3-guanidinopropyl)-7-((R)-1-hydroxyethyl)-6,9,12,15,18-pentaoxo-1,2-dithia-5,8,11,14,17-pentaazacycloicosane-4-carbonyl)-L-threonyl-ADM(23-35)-(1-(λ^2-azaneyl)-3,6,9,12,15-pentaoxaoctadecan-18-oyl)-L-alanyl-ADM(43-52)] (H-GGCRFGTCTVQKLAHQIYQFTD[PEG5]APRSKISPQGY-NH2; disulfide 3-8) | 79 ± 5% | 431 nM |

Now from value to compound:

| Emax | EC50 | Compound |
| --- | --- | --- |
| 94 ± 7% | 2.6 nM | CC[C@H](C)[C@H](NC(=O)[C@H](CCC(N)=O)NC(=O)[C@H](Cc1c[nH]cn1)NC(=O)[C@H](C)NC(=O)[C@H](CC(C)C)NC(=O)[C@H](CCCCN)NC(=O)[C@H](CCC(N)=O)NC(=O)[C@@H](NC(=O)[C@@H](NC(=O)[C@@H]1CSSC[C@H](NC(=O)CNC(=O)[C@@H](N)CCCCNC(=O)CCCCCCCCCCCCCCCCC(=O)O)C(=O)N[C@@H](CCCNC(=N)N)C(=O)N[C@@H](Cc2ccccc2)C(=O)NCC(=O)N[C@@H]([C@@H](C)O)C(=O)N1)[C@@H](C)O)C(C)C)C(=O)N[C@@H](Cc1ccc(O)cc1)C(=O)N[C@@H](CCC(N)=O)C(=O)N[C@@H](Cc1ccccc1)C(=O)N[C@H](C(=O)N[C@@H](CC(=O)O)C(=O)N[C@@H](CCCCN)C(=O)N[C@@H](CC(=O)O)C(=O)N[C@@H](CCCCN)C(=O)N[C@@H](CC(=O)O)C(=O)N[C@@H](CC(N)=O)C(=O)N[C@H](C(=O)N[C@@H](C)C(=O)N1CCC[C@H]1C(=O)N[C@H]1CCCCNC(=O)C[C@@H](C(=O)N2CCC[C@H]2C(=O)N[C@@H](CCC(N)=O)C(=O)NCC(=O)N[C@@H](Cc2ccc(O)cc2)C(N)=O)NC(=O)[C@H]([C@@H](C)CC)NC(=O)[C@H](CCCCN)NC(=O)[C@H](CO)NC1=O)C(C)C)[C@@H](C)O [Example 13] (H-K(C18 diacid)GCRFGTCTVQKLAHQIYQFTDKDKDNVAPKSKIDPQGY-NH2; disulfide 3-8; lactam 31-35) |
| 92 ± 5% | 6.6 nM | CC[C@H](C)[C@H](NC(=O)[C@H](CCC(N)=O)NC(=O)[C@H](Cc1c[nH]cn1)NC(=O)[C@H](C)NC(=O)[C@H](CC(C)C)NC(=O)[C@H](CCCCN)NC(=O)[C@H](CCC(N)=O)NC(=O)[C@@H](NC(=O)[C@@H](NC(=O)[C@@H]1CSSC[C@H](NC(=O)CNC(=O)[C@@H](N)CCCCNC(=O)CCCCCCCCCCCCCCCCC(=O)O)C(=O)N[C@@H](CCCNC(=N)N)C(=O)N[C@@H](Cc2ccccc2)C(=O)NCC(=O)N[C@@H]([C@@H](C)O)C(=O)N1)[C@@H](C)O)C(C)C)C(=O)N[C@@H](Cc1ccc(O)cc1)C(=O)N[C@@H](CCC(N)=O)C(=O)N[C@@H](Cc1ccccc1)C(=O)N[C@H](C(=O)NCCOCCOCCOCCC(=O)N[C@@H](CC(=O)O)C(=O)N[C@@H](CC(N)=O)C(=O)N[C@H](C(=O)N[C@@H](C)C(=O)N1CCC[C@H]1C(=O)N[C@H]1CCCCNC(=O)C[C@@H](C(=O)N2CCC[C@H]2C(=O)N[C@@H](CCC(N)=O)C(=O)NCC(=O)N[C@@H](Cc2ccc(O)cc2)C(N)=O)NC(=O)[C@H]([C@@H](C)CC)NC(=O)[C@H](CCCCN)NC(=O)[C@H](CO)NC1=O)C(C)C)[C@@H](C)O [Example 14] (H-K(C18 diacid)GCRFGTCTVQKLAHQIYQFT[PEG3]DNVAPKSKIDPQGY-NH2; disulfide 3-8; lactam 28-32) |
